The values that follow come from patent US9593110B2, “Neprilysin inhibitors” (Theravence Biopharma R&D IP, LLC, priority 2014, dated 2017).

The target of one data set is human NEP (Homo sapiens (Human), UniProt P08473). Put plainly: In vitro enzyme inhibition assay at human NEP. The settings on record: recombinant human NEP, fluorogenic peptide substrate, 37° C.; for Ki: pKi.
The nature of data set [1]: Rat PO cassette assay (oral bioavailability). The class given is in vivo, Sprague-Dawley rats. The conditions noted are these: male, Sprague-Dawley, plasma, single oral gavage vs intravenous dose, 0.5 mg/kg. An excerpt: Oral bioavailability, or % F, is a measure of the percentage of a drug in an oral dose that actually reaches the systemic circulation. Compound losses can occur due to incomplete formulation dissolution, incomplete absorption due to compound insolubility or instability along the GI, or metabolism in the gut or across the gut wall. The fraction of the dose which reaches the hepatic portal vein must also then pass through the liver before reaching the systemic circulation. Compound metabolism, or “first-pass extraction,” can occur during this initial passage through the liver, and this is an additional potential source of compound loss. Oral bioavailability is calculated as the dose-normalized ratio of drug exposure after an oral dose to that after an intravenous dose, wherein the entire dose is delivered directly to the systemic circulation.
Each cassette study begins with 10 mM DMSO stock solutions of up to 5 different compounds. Typically, compounds are selected such no two compounds dosed in the same cassette have a molecular weight within 5 Da of each other. This simplifies subsequent bioanalysis. Appropriate volumes of each DMSO stock are added into a volume of vehicle (5% sodium bicarbonate, 5% dextrose in H2O) such that the final concentration of each compound is 0.25 mg/mL. Intravenous dosing solutions are sterile-filtered (0.2 μm) prior to dosing.
Pre-cannulated male Sprague-Dawley rats (3 per cassette per route) between 8 and 10 weeks of age were obtained from Harlan Laboratories (Indianapolis, Ind.). Rats received either a single oral gavage or a single intravenous (via lateral tail vein) dose (2 mL/kg) of the dosing solution. The final dose was 0.5 mg/kg. Serial blood samples were harvested via jugular vein cannula at 3 minutes, 15 minutes, 30 minutes, 1 hours, 2 hours, 4 hours, 6 hours, and 24 hours post-dose. Sampling was performed either manually or using automated blood samplers. Samples were collected into microtainer tubes containing EDTA as the anticoagulant and are processed to plasma by refrigerated centrifugation.
Plasma samples were extracted with 3 volumes of MeCN containing a suitable internal standard. Extracts were reconstituted into 3 volumes of water containing 1% formic acid, and analyzed via HPLC-coupled MS/MS. Plasma concentration-time data were analyzed using the Phoenix software (Pharsight Corp., St. Louis, Mo.) to calculate pharmacokinetic parameters.
Compounds of the invention of particular interest were those having a % F>10%, when tested in this assay.

Sequence of human NEP (P08473 52-750): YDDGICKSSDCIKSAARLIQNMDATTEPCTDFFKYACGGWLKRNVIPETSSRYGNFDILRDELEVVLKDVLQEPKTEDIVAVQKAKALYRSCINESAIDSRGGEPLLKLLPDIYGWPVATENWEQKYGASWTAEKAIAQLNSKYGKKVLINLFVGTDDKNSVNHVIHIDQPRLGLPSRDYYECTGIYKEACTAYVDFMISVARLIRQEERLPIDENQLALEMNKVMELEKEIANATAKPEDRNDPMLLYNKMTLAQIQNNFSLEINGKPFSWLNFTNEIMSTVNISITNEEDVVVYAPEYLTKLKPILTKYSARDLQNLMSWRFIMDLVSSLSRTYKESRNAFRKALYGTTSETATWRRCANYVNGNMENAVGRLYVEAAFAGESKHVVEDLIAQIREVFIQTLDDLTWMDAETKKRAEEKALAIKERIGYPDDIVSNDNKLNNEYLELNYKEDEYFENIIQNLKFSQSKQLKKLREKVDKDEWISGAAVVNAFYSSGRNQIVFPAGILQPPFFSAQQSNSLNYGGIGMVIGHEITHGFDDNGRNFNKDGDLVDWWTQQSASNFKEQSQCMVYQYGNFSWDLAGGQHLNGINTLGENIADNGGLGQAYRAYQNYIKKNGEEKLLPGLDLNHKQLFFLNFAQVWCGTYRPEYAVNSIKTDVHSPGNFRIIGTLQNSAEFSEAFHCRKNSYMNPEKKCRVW
Procedure for human NEP: The inhibitory activities of compounds at human and rat neprilysin (EC 3.4.24.11; NEP) and human angiotensin converting enzyme (ACE) were determined using in vitro assays as described below.
The assays were performed in 384-well white opaque plates at 37° C. using the fluorogenic peptide substrates at a concentration of 10 μM in Assay Buffer (NEP: 50 mM HEPES, pH 7.5, 100 mM NaCl, 0.01% polyethylene glycol sorbitan monolaurate (Tween-20), 10 μM ZnSO4; ACE: 50 mM HEPES, pH 7.5, 100 mM NaCl, 0.01% Tween-20, 1 μM ZnSO4).
Test compounds were assayed over the range of concentrations from 10 μM to 20 pM. Test compounds were added to the enzymes and incubated for 30 minute at 37° C. prior to initiating the reaction by the addition of substrate.
Plates were read on a fluorometer with excitation and emission wavelengths set to 320 nm and 405 nm, respectively Inhibition constants were obtained by nonlinear regression of the data using the equation (GraphPad Software, Inc., San Diego, Calif.): v=v0/[1+(I/K′)] where v is the reaction rate, v0 is the uninhibited reaction rate, I is the inhibitor concentration and K′ is the apparent inhibition constant.

`N[C@H](C[C@@H](Cc1ccc(-c2cc(Cl)ccc2F)cc1)NC(=O)c1cc(-c2ccccc2Cl)no1)C(=O)O` [Example 16-24, (2R,4R)-2-Amino-5-(5′-chloro-2′-fluorobiphenyl-4-yl)-4-{[3-(2-chlorophenyl)-isoxazole-5-carbonyl]amino}pentanoic acid]: on human NEP, the pKi entry is recorded as “≧9.0”. The bioavailability in data set [1] is over 10%.

On to `COC[C@H](C[C@@H](Cc1ccc(-c2cc(Cl)ccc2F)cc1)NC(=O)c1cocn1)C(=O)O` [Example 2-8, (2S,4S)-5-(5′-Chloro-2′-fluorobiphenyl-4-yl)-2-methoxymethyl-4-[(oxazole-4-carbonyl)amino]pentanoic acid], for which the pKi entry on human NEP is recorded as “≧9.0”. Moreover, in data set [1], the bioavailability was over 10%.

For the compound `CCCCCCOC(=O)[C@H](N)C[C@@H](Cc1ccc(-c2cc(Cl)ccc2F)cc1)NC(=O)c1cnn[nH]1` [Example 14b, (2R,4R)-2-Amino-5-(5′-chloro-2′-fluorobiphenyl-4-yl)-4-[(3H-[1,2,3]triazole-4-carbonyl)amino]pentanoic Acid Hexyl Ester], the Ki at human NEP fell in the range of 31.6 to 100 nM. The compound further showed a bioavailability in data set [1] of over 10%.

On to `COC(=O)N[C@H](C[C@@H](Cc1ccc(-c2cc(Cl)ccc2F)cc1)NC(=O)c1ncc(C)o1)C(=O)O` [Example 30-4, (2R,4R)-5-(5′-Chloro-2′-fluorobiphenyl-4-yl)-2-methoxycarbonylamino-4-[(5-methyloxazole-2-carbonyl)amino]pentanoic acid], for which the pKi entry on human NEP was “≧9.0”. Also, in data set [1], the bioavailability was over 10%.

Turning to `COC[C@H](C[C@@H](Cc1ccc(-c2cc(Cl)ccc2F)cc1)NC(=O)c1c[nH]nn1)C(=O)O` [Example 2-1, (2S,4S)-5-(5′-chloro-2′-fluorobiphenyl-4-yl)-2-methoxymethyl-4-[(1H-[1,2,3]triazole-4-carbonyl)amino]pentanoic acid], at human NEP, the pKi entry is recorded as “≧9.0”. In data set [1], this compound had a bioavailability of over 10%.

For the compound `CCc1cc(C(=O)N[C@H](Cc2ccc(-c3cc(Cl)ccc3F)cc2)C[C@@H](NC(=O)OC)C(=O)O)on1` [Example 29, (2R,4R)-5-(5′-Chloro-2′-fluorobiphenyl-4-yl)-4-[(3-ethylisoxazole-5-carbonyl)amino]-2-methoxycarbonylaminopentanoic Acid], the Ki at human NEP is at most 1 nM. This compound also yielded a bioavailability in data set [1] of over 10%.

`COC[C@H](C[C@@H](Cc1ccc(-c2cc(Cl)ccc2F)cc1)NC(=O)c1ncc(C)o1)C(=O)O` [Example 2-15, (2S,4S)-5-(5′-Chloro-2′-fluorobiphenyl-4-yl)-2-methoxymethyl-4-[(5-methyloxazole-2-carbonyl)amino]pentanoic acid]: the pKi result on human NEP is on record as “≧9.0”. In data set [1], this compound showed a bioavailability of over 10%.

On to `CCOC[C@H](C[C@@H](Cc1ccc(-c2cc(Cl)ccc2F)cc1)NC(=O)c1[nH]nc(C2CC2)c1F)C(=O)O` [Example 7-2, (2S,4S)-5-(5′-Chloro-2′-fluorobiphenyl-4-yl)-4-[(5-cyclopropyl-4-fluoro-2H-pyrazole-3-carbonyl)amino]-2-ethoxymethylpentanoic acid], for which, at human NEP, the pKi result is “≧9.0”. This compound also yielded a bioavailability in data set [1] of over 10%.

As for `COC[C@H](C[C@@H](Cc1ccc(-c2cccc(Cl)c2)cc1)NC(=O)c1cnn[nH]1)C(=O)O` [Example 3, (2S,4S)-5-(3′-Chlorobiphenyl-4-yl)-2-methoxymethyl-4-[(3H-[1,2,3]triazole-4-carbonyl)amino]pentanoic Acid], on human NEP, the pKi entry was “≧9.0”. For the same compound, the bioavailability in data set [1] is over 10%.

With `COC[C@H](C[C@@H](Cc1ccc(-c2cc(Cl)ccc2F)cc1)NC(=O)c1coc(C2CC2)n1)C(=O)O` [Example 2-9, (2S,4S)-5-(5′-Chloro-2′-fluorobiphenyl-4-yl)-4-[(2-cyclopropyloxazole-4-carbonyl)amino]-2-methoxymethylpentanoic acid], the pKi entry at human NEP was “≧9.0”. This compound came in with a bioavailability in data set [1] of over 10%.

Consider `CCOC[C@H](C[C@@H](Cc1ccc(-c2cc(Cl)ccc2F)cc1)NC(=O)c1cc(O)no1)C(=O)O` [Example 7-4, (2S,4S)-5-(5′-Chloro-2′-fluoro-biphenyl-4-yl)-2-ethoxymethyl-4-[(3-hydroxy-isoxazole-5-carbonyl)amino]pentanoic acid], for which, at human NEP, the pKi result was “≧9.0”. The compound further came in with a bioavailability in data set [1] of over 10%.

For the compound `CCc1cc(C(=O)N[C@H](Cc2ccc(-c3cc(Cl)ccc3F)cc2)C[C@@H](CN)C(=O)O)on1` [Example 21-1, (2S,4S)-2-Aminomethyl-5-(5′-chloro-2′-fluorobiphenyl-4-yl)-4-[(3-ethylisoxazole-5-carbonyl)amino]pentanoic acid], on human NEP, the pKi result was “≧9.0”. This compound also came in with a bioavailability in data set [1] of over 10%.

On to `COC[C@H](C[C@@H](Cc1ccc(-c2ccccc2)cc1)NC(=O)c1c[nH]nn1)C(=O)O` [Example 5, (2S,4S)-5-Biphenyl-4-yl-2-methoxymethyl-4-[(1H-[1,2,3]-triazole-4-carbonyl)amino]pentanoic Acid], for which the pKi entry at human NEP is on record as “≧9.0”. The compound further came in with a bioavailability in data set [1] of over 10%.

Consider `CCc1nc(C(=O)N[C@H](Cc2ccc(-c3cc(Cl)ccc3F)cc2)C[C@@H](NC(=O)OC)C(=O)O)co1` [Example 30-6, (2R,4R)-5-(5′-Chloro-2′-fluorobiphenyl-4-yl)-4-[(2-ethyl-oxazole-4-carbonyl)amino]-2-methoxycarbonylaminopentanoic acid], for which the pKi result on human NEP is given as “≧9.0”. The compound also showed a bioavailability in data set [1] of over 10%.

For the compound `CCOC[C@H](C[C@@H](Cc1ccc(-c2cc(Cl)ccc2F)cc1)NC(=O)c1c[nH]nn1)C(=O)O` [Example 7-1, (2S,4S)-5-(5′-Chloro-2′-fluorobiphenyl-4-yl)-2-ethoxymethyl-4-[(1H-[1,2,3]triazole-4-carbonyl)amino]pentanoic acid], the pKi result on human NEP is given as “≧9.0”. The bioavailability in data set [1] was over 10%.

With `COC(=O)N[C@H](C[C@@H](Cc1ccc(-c2cc(Cl)ccc2F)cc1)NC(=O)c1ccc(Cl)cn1)C(=O)O` [Example 30-12, (2R,4R)-5-(5′-Chloro-2′-fluorobiphenyl-4-yl)-4-[(5-chloro-pyridine-2-carbonyl)-amino]-2-methoxycarbonylaminopentanoic acid], the pKi result on human NEP was “≧9.0”. Further, the bioavailability in data set [1] was over 10%.

For the compound `COC[C@H](C[C@@H](Cc1ccc(-c2cc(Cl)ccc2F)cc1)NC(=O)c1cc(OC)no1)C(=O)O` [Example 2-6, (2S,4S)-5-(5′-Chloro-2′-fluorobiphenyl-4-yl)-4-[(3-methoxyisoxazole-5-carbonyl)-amino]-2-methoxymethylpentanoic acid], the pKi result at human NEP is given as “≧9.0”. This compound displayed a bioavailability in data set [1] of over 10%.

On to `COC[C@H](C[C@@H](Cc1ccc(-c2cc(Cl)ccc2F)cc1)NC(=O)c1n[nH]c(C(F)(F)F)n1)C(=O)O` [Example 2-2, (2S,4S)-5-(5′-Chloro-2′-fluorobiphenyl-4-yl)-2-methoxymethyl-4-[(5-trifluoromethyl-1H-[1,2,4]triazole-3-carbonyl)amino]pentanoic acid], for which the pKi entry at human NEP is listed as “≧9.0”. Also, the bioavailability in data set [1] was over 10%.
